What was measured:
[1] = system: MMA Patient fibroblasts (GM01673); test: Mitochondrial morphology imaging in MMA patient fibroblasts (GM01673); type: cell-based; details: image compared with fragmented mitochondria in vehicle control
[2] = system: CD14+ monocytes differentiated to M1 macrophages; test: M1 differentiation assay (macrophage cytokine secretion, ELISA); type: cell-based, human; details: 10 uM
Protocol: Monocytes were isolated by positive isolation with CD14+ microbeads (Miltenyi, 130-050-201). Monocytes were 99% viable and were 96% purity as analyzed by FACS and CD14±(BD, 563561). 100,000 monocytes along with compounds at the dose of 10 and 50 μM were allowed to differentiate to macrophages with 10 ng/ml GMCSF (R&D,15-GM-050/CF) in RPMI complete media (Invitrogen, 22400089) with 15% FBS (Hyclone SV30087.03) and 1% Penicillin-Streptomycin (Gibco, 15140-122). On day 2 and 4 half the media was refreshed with fresh GM-CSF and compounds at 10 and 50 μM dose. On day 6 the macrophages were matured with GMCSF, IFN, (R&D 285-IF-100/CF) and LPS (Sigma, L6143) in the presence of 10 μM and 50 μM of compounds. After 24h, supernatant was collected for the measurement of TNFα (DKW, 1117202), IL6 (DKW, 1110602), IL10 (DKW, 1110003) by ELISA. Macrophages were detached gently on ice with EDTA (Invitrogen, 15575-038) and analyzed by FACS (BD LSR Fortessa, 853492). […]

[3] = system: MMA Patient fibroblasts (TSI 3739); test: Mitochondrial morphology imaging in MMA patient fibroblasts (TSI 3739); type: cell-based; details: image compared with fragmented mitochondria in vehicle control
[4] = system: MMA Patient fibroblasts (GM00371); test: Mitochondrial morphology imaging in MMA patient fibroblasts (GM00371); type: cell-based; details: image compared with fragmented mitochondria in vehicle control

COC(=O)[C@H](CSC(=O)CCCN)NC(=O)CCNC(=O)[C@H](O)C(C)(C)CO [Compound 72, methyl (2R)-3-[(4-aminobutanoyl)sulfanyl]-2-[3-[(2R)-2,4-dihydroxy-3,3-dimethylbutanamido]propanamido]propanoate]
mitochondrial morphology (elongation and networking of mitochondria) [1]: elongation and networking of mitochondria promoted

CC(=O)NCCCC(=O)SC[C@H](NC(=O)CCNC(=O)[C@H](O)C(C)(C)CO)C(=O)O [Compound 215, (2R)-2-[3-[(2R)-2,4-dihydroxy-3,3-dimethylbutanamido]propanamido]-3-[(4-acetamidobutanoyl)sulfanyl]propanoic acid]
% decrease in Macrophage IL-6 Secretion [2]: ≥30%
% decrease in Macrophage TNFα Secretion [2]: ≥30%

COC(=O)[C@H](CSC(=O)CCCNC(C)=O)NC(=O)CCNC(=O)[C@H](O)C(C)(C)CO [Compound 216, methyl (2R)-2-[3-[(2R)-2,4-dihydroxy-3,3-dimethylbutanamido]propanamido]-3-[(4-acetamidobutanoyl)sulfanyl]propanoate]
mitochondrial morphology (elongation and networking of mitochondria) [3]: elongation and networking of mitochondria promoted
mitochondrial morphology (elongation and networking of mitochondria) [1]: elongation and networking of mitochondria promoted

COC(=O)[C@H](CSC(=O)CCCO)NC(=O)CCNC(=O)[C@H](O)C(C)(C)CO [Compound 697, methyl (2R)-2-[3-[(2R)-2,4-dihydroxy-3,3-dimethylbutanamido]propanamido]-3-[(4-hydroxybutanoyl)sulfanyl]propanoate]
mitochondrial morphology (elongation and networking of mitochondria) [3]: elongation and networking of mitochondria promoted
mitochondrial morphology (elongation and networking of mitochondria) [4]: elongation and networking of mitochondria promoted
mitochondrial morphology (elongation and networking of mitochondria) [1]: elongation and networking of mitochondria promoted

COC(=O)[C@H](CSC(=O)CCCOC(C)=O)NC(=O)CCNC(=O)[C@H](O)C(C)(C)CO [Compound 698, methyl (2R)-3-[[4-(acetyloxy)butanoyl]sulfanyl]-2-[3-[(2R)-2,4-dihydroxy-3,3-dimethylbutanamido]propanamido]propanoate]
mitochondrial morphology (elongation and networking of mitochondria) [3]: elongation and networking of mitochondria promoted
mitochondrial morphology (elongation and networking of mitochondria) [1]: elongation and networking of mitochondria promoted
